Test results reported in the supplement of paper PMC10307832.

Columns and labels:
Experiment in all cases: relative viability (nuclei count vs DMSO), 5 days (fraction); higher = more cells survive
[1] = compound: C(C(=O)C(=O)O)Br [Bromopyruvate] + Cc1nc(Nc2ncc(C(=O)Nc3c(C)cccc3Cl)s2)cc(N2CCN(CCO)CC2)n1 [Dasatinib] (partner 0.075 µM)
Method in brief: (§1)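 Nuclei were stained with Hoechst during a one-step fixation (final 0.05% Triton X-100, 1% formaldehyde, 1 ug/ml Hoechst) carried out 5 days after dosing, then counted on 4× images. The cells, lung cancer lines in 1536-well plates, had been dosed by pin tool the day after seeding with one drug alone or a fixed anchor-drug dose plus five library-drug doses (not always all listed) in √10 steps. Relative viability is the nuclei count in treated wells divided by that in vehicle wells, and each value is the median of duplicate plates.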

Bicalutamide + Foretinib = compound: CC(O)(CS(=O)(=O)c1ccc(F)cc1)C(=O)Nc1ccc(C#N)c(C(F)(F)F)c1 [Bicalutamide] + COc1cc2c(Oc3ccc(NC(=O)C4(C(=O)Nc5ccc(F)cc5)CC4)cc3F)ccnc2cc1OCCCN1CCOCC1 [Foretinib] (partner 0.25 µM)
Method in brief: as §1

[2] = compound: CC(O)(CS(=O)(=O)c1ccc(F)cc1)C(=O)Nc1ccc(C#N)c(C(F)(F)F)c1 [Bicalutamide] + N=C(N)NC(=N)NCCc1ccccc1 [Phenformin] (partner 250 µM)
Method in brief: as §1

[3] = compound: C(C(=O)C(=O)O)Br [Bromopyruvate] + Cc1nc(NC(=O)N2CCC[C@H]2C(N)=O)sc1-c1ccnc(C(C)(C)C(F)(F)F)c1 [Alpelisib] (partner 2 µM)
Method in brief: as §1

Cell Line	relative viability ([1]; first compound 1 µM)	relative viability ([1]; first compound 3.162 µM)	relative viability ([1]; first compound 10 µM)	relative viability ([1]; first compound 31.62 µM)	relative viability ([1]; first compound 100 µM)	relative viability (Bicalutamide + Foretinib; first compound 0.08 µM)	relative viability (Bicalutamide + Foretinib; first compound 0.253 µM)	relative viability (Bicalutamide + Foretinib; first compound 0.8 µM)	relative viability (Bicalutamide + Foretinib; first compound 2.53 µM)	relative viability ([2]; first compound 0.08 µM)	relative viability ([2]; first compound 0.253 µM)	relative viability ([2]; first compound 0.8 µM)	relative viability ([2]; first compound 2.53 µM)	relative viability ([3]; first compound 1 µM)	relative viability ([3]; first compound 3.162 µM)	relative viability ([3]; first compound 10 µM)	relative viability ([3]; first compound 31.62 µM)	relative viability ([3]; first compound 100 µM)
201T	0.585	0.575	0.613	0.574	0.657	1.01	1.02	0.892	1.09	0.503	0.414	0.481	0.416	1.02	0.989	0.944	0.998	1.08
A549						0.907	1.02	1.01	0.927	0.247	0.11	0.181	0.254	0.814	0.971	0.834	0.794	0.726
A-427	0.733	0.688	0.685	0.669	0.685	1.08	1.03	1.09	1.05	0.382	0.283	0.367	0.224	1.12	1.07	1.09	1.05	1.02
ABC-1	0.692	0.492	0.62	0.584	0.348	0.987	1.05	1.18	1.24	0.26	0.229	0.253	0.212	0.915	1.04		1.04	0.878
BEN	0.367	0.297	0.354	0.26	0.379	0.604	0.609	0.791	0.682	0.257	0.262	0.28	0.279	0.985	1.05	1.15	0.957	1.07
CAL-12T	0.488	0.341	0.409	0.539	0.392	1.11	1.04	1.32	1.13	0.609	0.505	0.626	0.493	1.17	1.49	1.38	1.25	0.952
COR-L23	0.604	0.514	0.631	0.449	0.13	1.04	0.981	1.12	1.02	0.5	0.487	0.512	0.414	0.771	0.849	0.9	0.665	0.405
COR-L 105	0.336	0.36	0.294	0.319	0.195	1.35	0.976	0.859	0.784	0.481	0.412	0.52	0.37	0.975	1.34	1.23	1.02	0.768
Calu-6						0.931	0.916	0.853	0.843					1.09	1.02	1.05	0.952	0.615
ChaGo-K-1	0.59	0.607	0.604	0.586	0.589	0.897	0.748	0.937	0.825	0.449	0.388	0.509	0.48					
EBC-1						0.0878	0.115	0.0994	0.121					0.888	0.82	0.802	0.79	0.747
EKVX	0.433	0.547	0.578	0.689	0.628	0.749	0.757	0.95	0.752	0.246	0.223	0.233	0.24	0.875	0.815	1.01	0.86	0.943
EMC-BAC-2	0.317	0.34	0.449	0.297	0.334	1.02	0.867	1.02	0.928	0.541	0.554	0.609	0.46	0.658	0.771	0.897	0.747	0.826
EPLC-272H	0.354	0.309	0.462	0.374	0.455	0.606	0.841	0.817	0.679	0.34	0.274	0.311	0.315	1.05	1.17	0.941	0.806	1.04
H3255	0.422	0.361	0.347	0.344	0.488	0.901	0.827		0.84	0.42	0.337		0.352	0.765	0.647	0.86	0.856	0.783
HARA	0.216	0.297	0.241	0.282	0.362	0.931	0.836	1.17	0.897	0.516	0.388	0.595	0.481	0.792	0.868	1.04	0.802	0.858
HCC-15	0.654	0.633	0.606	0.744	0.541	1.04	0.952	1.12	1.02	0.513	0.418	0.6	0.484	0.929	0.947	0.962	0.852	0.8
HCC-44										0.302	0.177	0.292	0.184	0.781	0.83	0.859	0.916	0.863
HCC-78	0.342	0.409	0.381	0.274	0.305	0.566	0.543	0.55	0.52	0.776	0.557	0.796	0.668	0.305	0.354	0.421	0.452	0.373
HCC-366	0.614	0.672	1.01	0.643	0.585	0.937	0.842	0.919	0.995	0.568	0.615	0.699	0.64	0.494	0.403	0.503	0.519	0.41
HCC-827	0.249	0.366	0.329	0.326	0.317	1.09	0.881	1.04	1.01	0.405	0.316	0.412	0.443	1.03	0.988	0.972	1.02	0.967

Cell Line	relative viability ([1]; first compound 1 µM)	relative viability ([1]; first compound 3.162 µM)	relative viability ([1]; first compound 10 µM)	relative viability ([1]; first compound 31.62 µM)	relative viability ([1]; first compound 100 µM)	relative viability (Bicalutamide + Foretinib; first compound 0.08 µM)	relative viability (Bicalutamide + Foretinib; first compound 0.253 µM)	relative viability (Bicalutamide + Foretinib; first compound 0.8 µM)	relative viability (Bicalutamide + Foretinib; first compound 2.53 µM)	relative viability ([2]; first compound 0.08 µM)	relative viability ([2]; first compound 0.253 µM)	relative viability ([2]; first compound 0.8 µM)	relative viability ([2]; first compound 2.53 µM)	relative viability ([3]; first compound 1 µM)	relative viability ([3]; first compound 3.162 µM)	relative viability ([3]; first compound 10 µM)	relative viability ([3]; first compound 31.62 µM)	relative viability ([3]; first compound 100 µM)
HOP-62	0.643	0.68	0.791	0.609	0.709	1.11	1.13	1.29	1.26	0.681	0.651	0.769	0.698	0.696	1.06		0.426	0.698
IA-LM						1.22	1.1	1.17	1.18					0.756	0.776	0.887	0.836	0.821
LC-2-ad	0.765	0.671	0.634	0.54	0.437	0.969	0.829	1.02	1.03	0.607	0.529	0.654	0.56	0.925	0.919	0.839	0.938	0.893
LCLC-97TM1	0.74	0.898	0.835	0.763	0.957	0.871	0.923	1.04	0.96	0.442	0.426	0.463	0.443			0.272	0.302	0.183
LCLC-103H	0.479	0.494	0.413	0.447	0.54	0.748	0.702	0.907	0.698	0.305	0.326	0.379	0.355	0.981	0.938	1.01	0.95	0.985
LK-2	0.284	0.328	0.322	0.336	0.317	1.44	0.992	1.63	1.32	0.526	0.198	0.498	0.629	0.565	0.991	1.14	1.16	1.22
LOU-NH91	0.592	0.535	0.61	0.58	0.558	0.969	0.79	0.963	0.96	0.745	0.493	0.814	0.821	0.764	0.732	0.721	0.775	0.868
LU99A	0.515	0.568	0.575	0.552	0.534	0.773	0.815	0.892	0.578	0.917	0.715	0.997	0.663	0.516	0.491	0.512	0.561	0.483
LXF-289	0.278	0.214	0.262	0.27	0.183	0.955	0.91	0.939	0.985	0.596	0.481	0.55	0.519	1.07	1.03	1.04	1.03	1.08
NCI-H23	0.721	0.794	1.1	0.775	1.07	0.905	0.876	1.01	0.965	0.851	0.694	0.883	0.765	0.607	0.669	0.68	0.46	0.43
NCI-H322M	0.253	0.258	0.248	0.235	0.259	1.01	0.851	1.16	1.06	0.821	0.789	0.904	0.859	0.804	0.73	0.843	0.779	0.798
NCI-H358	0.197	0.149	0.143	0.171	0.167	0.767	0.565	0.958	0.73	0.336	0.344	0.401	0.35	0.812	1.08	0.819	0.69	0.721
NCI-H441	0.64	0.618	0.693	0.677	0.486	1.19	0.894	0.964	0.787	0.849	0.745	1.09	0.683	0.835	1.01	0.714	0.658	0.547
NCI-H522	0.856	0.781	0.816	0.892	1.01					0.659	0.649	0.622	0.661					
NCI-H1299						1.04	1.08	1.09	1.08					1.01	1.04	1.09	1.04	1.06
NCI-H1623	0.574	0.487	0.672	0.597	0.576	0.883	0.884	0.918	0.869		0.594	0.587	0.55					
NCI-H1650	0.309	0.268	0.289	0.395	0.211	1.28	1.17	1.14	1.27	0.429	0.375	0.493	0.378					
NCI-H1703						0.342	0.36	0.41	0.293					0.364	0.347	0.294	0.345	0.33
NCI-H1792	0.81	0.892	0.91		0.723					0.275		0.444	0.344	0.715	0.788	0.906	0.708	0.703
NCI-H2342	0.307	0.292	0.319	0.285	0.319	1.08	1.13	1.09	1.08	0.641	0.466	0.702	0.608					
SW 900	0.498	0.552	0.533	0.516	0.592	1.15	0.866	1.04	1.07	0.511	0.555	0.874	0.411					
